Laboratory results taken from paper PMC11003488 (Journal of Enzyme Inhibition and Medicinal Chemistry, 2023).

Tests used:
786-0 = assay: NCI-60 SRB growth inhibition, one-dose and five-dose; assay type: cell-based; settings: Homo sapiens
SF-539 = assay: as above; assay type: cell-based; settings: Homo sapiens
SW-620 = assay: as above; assay type: cell-based; settings: Homo sapiens
SF-268 = assay: as above; assay type: cell-based; settings: Homo sapiens
HCT-116 = assay: as above; assay type: cell-based; settings: Homo sapiens
SK-MEL-2 = assay: as above; assay type: cell-based; settings: Homo sapiens, SK-MEL-2, read-out: percent growth inhibition
RPMI-8226 = assay: as above; assay type: cell-based; settings: Homo sapiens
IGROV1 = assay: as above; assay type: cell-based; settings: Homo sapiens
K-562 = assay: as above; assay type: cell-based; settings: Homo sapiens
[1] = system: NCI 60-cell line panel (full panel); assay: NCI-60 SRB growth inhibition, full panel mean / MG-MID; assay type: cell-based, human
SK-MEL-28 = assay: NCI-60 SRB growth inhibition, one-dose and five-dose; assay type: cell-based; settings: Homo sapiens
T-47D = assay: as above; assay type: cell-based; settings: Homo sapiens, T47D
SN12C = assay: as above; assay type: cell-based; settings: Homo sapiens
CAKI-1 = assay: as above; assay type: cell-based; settings: Homo sapiens
OVCAR-3 = assay: as above; assay type: cell-based; settings: Homo sapiens
NCI-H522 = assay: as above; assay type: cell-based; settings: Homo sapiens
EKVX = assay: as above; assay type: cell-based; settings: Homo sapiens
OVCAR-5 = assay: as above; assay type: cell-based; settings: Homo sapiens
NCI-H322M = assay: as above; assay type: cell-based; settings: Homo sapiens
A498 = assay: as above; assay type: cell-based; settings: Homo sapiens
MOLT-4 = assay: as above; assay type: cell-based; settings: Homo sapiens
TK-10 = assay: as above; assay type: cell-based; settings: Homo sapiens
NCI-H23 = assay: as above; assay type: cell-based; settings: Homo sapiens
U251 = assay: as above; assay type: cell-based; settings: Homo sapiens
HL-60(TB) = assay: cells; assay type: cell-based; settings: Homo sapiens
HCT-15 = assay: NCI-60 SRB growth inhibition, one-dose and five-dose; assay type: cell-based; settings: Homo sapiens
A549/ATCC = assay: as above; assay type: cell-based; settings: Homo sapiens
RXF 393 = assay: as above; assay type: cell-based; settings: Homo sapiens
BT-549 = assay: as above; assay type: cell-based; settings: Homo sapiens
HOP-92 = assay: as above; assay type: cell-based; settings: Homo sapiens
MCF7 = assay: as above; assay type: cell-based; settings: Homo sapiens
OVCAR-8 = assay: as above; assay type: cell-based; settings: Homo sapiens, OVCAR-8, read-out: percent growth inhibition
SNB-75 = assay: as above; assay type: cell-based; settings: Homo sapiens
NCI-H460 = assay: as above; assay type: cell-based; settings: Homo sapiens
SR = assay: as above; assay type: cell-based; settings: Homo sapiens
M14 = assay: as above; assay type: cell-based; settings: Homo sapiens
HCC-2998 = assay: as above; assay type: cell-based; settings: Homo sapiens
UACC-62 = assay: as above; assay type: cell-based; settings: Homo sapiens
PC-3 = assay: as above; assay type: cell-based; settings: Homo sapiens
NCI/ADR-RES = assay: as above; assay type: cell-based; settings: Homo sapiens
HS 578 T = assay: as above; assay type: cell-based; settings: Homo sapiens
SNB-19 = assay: as above; assay type: cell-based; settings: Homo sapiens
[2] = read-out: percent growth inhibition

For `CC(=O)Nc1ccc(/C=C/C(=O)c2cccc(NCc3ccc(NC(C)=O)cc3)c2)cc1` [Compound 5g, (E)-N-(4–(3-(3-((4-acetamidobenzyl)amino)phenyl)-3-oxoprop-1-en-1-yl)phenyl) acetamide], the GI50 (786-0; 786-0) was 13.7 µM, the inhibition at 10 µM (786-0; 786-0, read-out: percent growth inhibition) was 144% and the GI50 (SF-539; SF-539) was 12.2 µM. The inhibition at 10 µM (SF-539; SF-539, read-out: percent growth inhibition) was 167%, the GI50 (SW-620; SW-620) was 1.9 µM and the inhibition at 10 µM (SW-620; SW-620, read-out: percent growth inhibition) was 158%. It also gave a GI50 (SF-268; SF-268) of 18.4 µM, an inhibition at 10 µM (SF-268; SF-268, read-out: percent growth inhibition) of 78.7% and a GI50 (HCT-116; HCT-116, HCT-116, five-dose screening) of 1.95 µM. The inhibition at 10 µM (HCT-116; HCT-116, read-out: percent growth inhibition) was 190%, the inhibition at 10 µM (SK-MEL-2) was 28.3% and the GI50 (RPMI-8226; RPMI-8226) was 3.02 µM. For the same compound, the inhibition at 10 µM (RPMI-8226; RPMI-8226, read-out: percent growth inhibition) was 130%, the GI50 (IGROV1; IGROV-1) was 5.59 µM and the inhibition at 10 µM (IGROV1; IGROV-1, read-out: percent growth inhibition) was 56.3%. It also gave a GI50 (K-562; K562) of 2.93 µM, an inhibition at 10 µM (K-562; K562, read-out: percent growth inhibition) of 100% and a GI50 ([1]; Homo sapiens, 60 cell, read-out: Full panel GI50 mean) of 9.52 µM. For the same compound, the “Full panel Mean GI %” value ([1]; mean over NCI-60 panel, single dose 10 µM) was 87.48%, the GI50 (SK-MEL-28; SK-MEL-28) was 12.7 µM and the inhibition at 10 µM (SK-MEL-28; SK-MEL-28, read-out: percent growth inhibition) was 98.3%. For the same compound, the GI50 (T-47D) was 7.77 µM, the inhibition at 10 µM (T-47D; [2]) was 46.4% and the GI50 (SN12C) was 4.82 µM. For the same compound, the inhibition at 10 µM (SN12C; [2]) was 87%, the GI50 (CAKI-1; CAKI-1) was 12.2 µM and the inhibition at 10 µM (CAKI-1; CAKI-1, read-out: percent growth inhibition) was 54.9%. It also gave a GI50 (OVCAR-3; OVCAR-3) of 6.09 µM, an inhibition at 10 µM (OVCAR-3; OVCAR-3, read-out: percent growth inhibition) of 118% and a GI50 (NCI-H522; NCI-H522) of 6.54 µM. For the same compound, the inhibition at 10 µM (NCI-H522; NCI-H522, read-out: percent growth inhibition) was 159%, the GI50 (EKVX) was 13.5 µM and the inhibition at 10 µM (EKVX; [2]) was 43.7%. For the same compound, the GI50 (OVCAR-5; OVCAR-5) was 12.3 µM, the inhibition at 10 µM (OVCAR-5; OVCAR-5, read-out: percent growth inhibition) was 45.2% and the GI50 (NCI-H322M) was 13.8 µM. For the same compound, the inhibition at 10 µM (NCI-H322M; [2]) was 28.7%, the GI50 (A498; A498) was 14.2 µM and the inhibition at 10 µM (A498; A498, read-out: percent growth inhibition) was 16.6%. It also gave a GI50 (MOLT-4; MOLT-4) of 3.21 µM, an inhibition at 10 µM (MOLT-4; MOLT-4, read-out: percent growth inhibition) of 116% and a GI50 (TK-10; TK-10) of 13.8 µM. It also gave an inhibition at 10 µM (TK-10; TK-10, read-out: percent growth inhibition) of 33.2%, a GI50 (NCI-H23; NCI-H23) of 14.4 µM and an inhibition at 10 µM (NCI-H23; NCI-H23, read-out: percent growth inhibition) of 55.1%. For the same compound, the GI50 (U251; U-251) was 3.2 µM, the inhibition at 10 µM (U251; U-251, read-out: percent growth inhibition) was 181% and the GI50 (HL-60(TB); HL-60) was 7.08 µM. It also gave an inhibition at 10 µM (HL-60(TB); HL-60, read-out: percent growth inhibition) of 100%, a GI50 (HCT-15; HCT-15) of 3.13 µM and an inhibition at 10 µM (HCT-15; HCT-15, read-out: percent growth inhibition) of 144%. It also gave a GI50 (A549/ATCC; A549) of 15.8 µM, an inhibition at 10 µM (A549/ATCC; A549, read-out: percent growth inhibition) of 10.9% and a GI50 (RXF 393; RXF 393) of 11.3 µM. The inhibition at 10 µM (RXF 393; RXF 393, read-out: percent growth inhibition) was 158%, the GI50 (BT-549; BT-549) was 10.4 µM and the inhibition at 10 µM (BT-549; BT-549, read-out: percent growth inhibition) was 63.7%. The GI50 (HOP-92; HOP-92) was 11.8 µM, the inhibition at 10 µM (HOP-92; HOP-92, read-out: percent growth inhibition) was 26.9% and the GI50 (MCF7; MCF7) was 2.88 µM. For the same compound, the inhibition at 10 µM (MCF7; MCF7, read-out: percent growth inhibition) was 107%, the inhibition at 10 µM (OVCAR-8) was 129% and the GI50 (SNB-75; SNB-75) was 4.87 µM. The inhibition at 10 µM (SNB-75; SNB-75, read-out: percent growth inhibition) was 17%, the GI50 (NCI-H460; NCI-H460) was 6.29 µM and the inhibition at 10 µM (NCI-H460; NCI-H460, read-out: percent growth inhibition) was 136%. It also gave a GI50 (SR) of 2.43 µM, a GI50 (M14; M14) of 12.6 µM and an inhibition at 10 µM (M14; M14, read-out: percent growth inhibition) of 77%. For the same compound, the GI50 (HCC-2998; HCC 2998) was 14.8 µM, the inhibition at 10 µM (HCC-2998; HCC 2998, read-out: percent growth inhibition) was 137% and the GI50 (UACC-62; UACC-62) was 8.03 µM. It also gave an inhibition at 10 µM (UACC-62; UACC-62, read-out: percent growth inhibition) of 74.2%, a GI50 (PC-3; PC-3) of 11.6 µM and an inhibition at 10 µM (PC-3; PC-3, read-out: percent growth inhibition) of 54.8%. It also gave a GI50 (NCI/ADR-RES) of 16.5 µM, an inhibition at 10 µM (NCI/ADR-RES; [2]) of 88.2% and a GI50 (HS 578 T) of 10.6 µM. It also gave an inhibition at 10 µM (HS 578 T; [2]) of 32%, a GI50 (SNB-19; SNB-19) of 7 µM and an inhibition at 10 µM (SNB-19; SNB-19, read-out: percent growth inhibition) of 95.4%.
